# Where two headings read alike, the source gives them in different places.
# Legend:
# Assay type in all cases: cell-based, human
# [1] = test system: SMMC-7721; test: MTT survival assay, liver cancer cell line (SMMC-7721); conditions: SMMC-7721; for IC50: Homo sapiens
# Experimental: (§1) The effect of the above identified compounds on anti-tumor activity in human carcinoma cells was determined by the MTT survival assay. The MTT assay is a commonly used method in evaluation of cell survival, based on the ability of viable cells to convert MTT (MTT, Sigma, Cat No. 044K5307), a soluble tetrazolium salt [3-(4,5-dimethylthuazole-2-yl)-2,5 diphenyl tetrazolium bromide], into an insoluble formazan precipitate, which is quantitated by spectrophotometry following solubilization in dimethyl sulfoxide (DMSO).
# (§2) In brief, different carcinoma cells were treated with negative control, various test articles at different concentration, and positive control (DDP), in 96-well tissue culture dishes. Each test article at different concentration is repeated 3 times.
# (§3) Different carcinoma cells were diluted with 10% FBS and RPM1640 or MEM media to a concentration of 3-5×10^4 per ml suspension. 100 microliter of cells were incubated in each well in 96-well tissue culture dishes at 37 C. The cells were incubated at 37 C on the first day. On the second day, media supernatant was removed and replaced with media and different concentration of test articles (100 microliter in each well). Three Negative control wells and three positive control (DDP) wells were also included. The 96-well plate were incubated at 37 C for another 68 hours. After 68 hours, supernatant of each well was removed. 100 microliter of 1 mg/ml MTT diluted in PBS was injected into each well. The cells were incubated at 37 C for another 4 hours. The cells were then solubilized in 150 microliter DMSO, mixed for 10 minutes and absorbance readings were taken using Microplate reader Bio-Rad Model 550 at 570 nm. IR (cell growth inhibition rate) % was calculated as (OD570 of negative control-OD570 with test article)/OD570 of negative control. IC50 (cell 50% inhibition concentration) at 95% confidence level was calculated with Bliss method.
# [2] = test system: A459; test: MTT survival assay, lung cancer cell line (A459); conditions: A459; for IC50: Homo sapiens
# Experimental: as §1, §2, §3
# [3] = test system: U251; test: MTT survival assay, glioma cell line (brain tumor U251); conditions: U251 (first table)
# Experimental: as §1, §2, §3
# [4] = test system: SKOV3; test: MTT survival assay, ovarian cancer cell line (SKOV3); conditions: SKOV3 (first table)
# Experimental: as §1, §2, §3
# [5] = test system: Hela cells; test: MTT survival assay, cervical cancer line (Hela cells); conditions: for IC50: Homo sapiens
# Experimental: as §1, §2, §3
# [6] = test system: MCF-7; test: MTT survival assay, breast cancer cell line (MCF-7); conditions: for IC50: Homo sapiens
# Experimental: as §1, §2, §3
# [7] = 95% confidence limits of IC50, read-out: IC50 (95% confidence level), interval
# [8] = Bliss method, unit not printed (concentrations in μg/ml), read-out: IC50 (95% confidence level)
compound,measurement,setting,value
O=C(Nc1ccnc2[nH]ccc12)c1cc2ccccc2s1 [Mol 11],IC50,[1]; [7],14.3 to 15.5 µg/mL
same,IC50,[1]; [8],14.9 µg/mL
same,IR (%),[1]; 3.125 μg/ml,37.0%
same,OD(A570 nm),[1]; 3.125 μg/ml,0.277 ± 0.018
same,IR (%),[1]; 6.25 μg/ml,35.1%
same,OD(A570 nm),[1]; 6.25 μg/ml,0.286 ± 0.092
same,IR (%),[1]; 12.5 μg/ml,53.1%
same,OD(A570 nm),[1]; 12.5 μg/ml,0.207 ± 0.007
same,IR (%),[1]; 25 μg/ml,53.5%
same,OD(A570 nm),[1]; 25 μg/ml,0.205 ± 0.018
same,IR (%),[1]; 50 μg/ml,63.0%
same,OD(A570 nm),[1]; 50 μg/ml,0.163 ± 0.009
same,IR (%),[1]; 100 μg/ml,68.1%
same,OD(A570 nm),[1]; 100 μg/ml,0.141 ± 0.006
same,IR (%),[2]; 3.125 μg/ml,8.6%
same,OD(A570 nm),[2]; 3.125 μg/ml,0.583 ± 0.015
same,IR (%),[2]; 6.25 μg/ml,26.1%
same,OD(A570 nm),[2]; 6.25 μg/ml,0.471 ± 0.001
same,IR (%),[2]; 12.5 μg/ml,31.2%
same,OD(A570 nm),[2]; 12.5 μg/ml,0.438 ± 0.051
same,IR (%),[2]; 25 μg/ml,64.0%
same,OD(A570 nm),[2]; 25 μg/ml,0.230 ± 0.040
same,IR (%),[2]; 50 μg/ml,76.1%
same,OD(A570 nm),[2]; 50 μg/ml,0.152 ± 0.017
same,IR (%),[2]; 100 μg/ml,83.1%
same,OD(A570 nm),[2]; 100 μg/ml,0.108 ± 0.013
same,IC50,[2]; [7],19.1 to 19.8 µg/mL
same,IC50,[2]; [8],19.4 µg/mL
same,IC50,"[3]; Homo sapiens, U-251, Bliss method, unit not printed (concentrations in μg/ml), read-out: IC50 (95% confidence level)",4340 µg/mL
same,IR (%),[3]; 3.125 μg/ml,9.1%
same,OD(A570 nm),[3]; 3.125 μg/ml,0.797 ± 0.016
same,IR (%),[3]; 6.25 μg/ml,13.5%
same,OD(A570 nm),[3]; 6.25 μg/ml,0.758 ± 0.019
same,IR (%),[3]; 12.5 μg/ml,15.1%
same,OD(A570 nm),[3]; 12.5 μg/ml,0.744 ± 0.045
same,IR (%),[3]; 25 μg/ml,20.5%
same,OD(A570 nm),[3]; 25 μg/ml,0.697 ± 0.053
same,IR (%),[3]; 50 μg/ml,19.1%
same,OD(A570 nm),[3]; 50 μg/ml,0.709 ± 0.054
same,IR (%),[3]; 100 μg/ml,25.8%
same,OD(A570 nm),[3]; 100 μg/ml,0.650 ± 0.006
same,IC50,"[4]; Homo sapiens, SK-OV-3, Bliss method, unit not printed (concentrations in μg/ml), read-out: IC50 (95% confidence level)",29 µg/mL
same,IR (%),[4]; 3.125 μg/ml,0%
same,OD(A570 nm),[4]; 3.125 μg/ml,0.753 ± 0.074
same,IR (%),[4]; 6.25 μg/ml,0.9%
same,OD(A570 nm),[4]; 6.25 μg/ml,0.694 ± 0.043
same,IR (%),[4]; 12.5 μg/ml,4.1%
same,OD(A570 nm),[4]; 12.5 μg/ml,0.671 ± 0.063
same,IR (%),[4]; 25 μg/ml,45.0%
same,OD(A570 nm),[4]; 25 μg/ml,0.385 ± 0.017
same,IR (%),[4]; 50 μg/ml,55.1%
same,OD(A570 nm),[4]; 50 μg/ml,0.314 ± 0.041
same,IR (%),[4]; 100 μg/ml,86.0%
same,OD(A570 nm),[4]; 100 μg/ml,0.098 ± 0.010
same,IR (%),[5]; 0.41 μg/ml,0.7%
same,OD(A570 nm),[5]; 0.41 μg/ml,0.738 ± 0.080
same,OD(A570 nm),[5]; 1.23 μg/ml,0.790 ± 0.037
same,IR (%),[5]; 3.70 μg/ml,2.6%
same,OD(A570 nm),[5]; 3.70 μg/ml,0.723 ± 0.032
same,IR (%),[5]; 11.11 μg/ml,12.0%
same,OD(A570 nm),[5]; 11.11 μg/ml,0.653 ± 0.134
same,IR (%),[5]; 33.33 μg/ml,61.9%
same,OD(A570 nm),[5]; 33.33 μg/ml,0.283 ± 0.047
same,IR (%),[5]; 100 μg/ml,80.5%
same,OD(A570 nm),[5]; 100 μg/ml,0.145 ± 0.031
same,IC50,[5]; [7],26.8 to 38.3 µg/mL
same,IC50,[5]; [8],31.9 µg/mL
same,IR (%),[6]; 3.125 μg/ml,0%
same,OD(A570 nm),[6]; 3.125 μg/ml,0.903 ± 0.194
same,IR (%),[6]; 6.25 μg/ml,21.2%
same,OD(A570 nm),[6]; 6.25 μg/ml,0.711 ± 0.045
same,IR (%),[6]; 12.5 μg/ml,16.6%
same,OD(A570 nm),[6]; 12.5 μg/ml,0.752 ± 0.164
same,IR (%),[6]; 25 μg/ml,21.9%
same,OD(A570 nm),[6]; 25 μg/ml,0.705 ± 0.076
same,IR (%),[6]; 50 μg/ml,45.7%
same,OD(A570 nm),[6]; 50 μg/ml,0.490 ± 0.093
same,IR (%),[6]; 100 μg/ml,47.0%
same,OD(A570 nm),[6]; 100 μg/ml,0.478 ± 0.079
same,IC50,"[6]; MCF7, 95% confidence limits of IC50, read-out: IC50 (95% confidence level), interval",66.9 to 154 µg/mL
same,IC50,"[6]; MCF7, Bliss method, unit not printed (concentrations in μg/ml), read-out: IC50 (95% confidence level)",94.2 µg/mL

# From US20100189648A1, “INHIBITORS FOR DISRUPTING THE INTERACTION OF UBIQUITINATION RELATED ENZYMES AND USES THEREOF” (priority 2006, published 2010)
